Laboratory results as given in patent US12544395B2, “Combination compositions comprising a beta-lactamase inhibitor and uses thereof” (priority 2018, dated 2026).

Experiments:
Format in all cases: cell-based
E. coli 1924 = assay: Broth microdilution MIC (strain enzymes: TEM-12); settings: Escherichia coli, 1924; alone; read-out: MIC of cefixime (CFM)
E. coli 2150 = assay: Broth microdilution MIC (strain enzymes: SHV-3, TEM-1); settings: Escherichia coli, 2150; alone; read-out: MIC of cefixime (CFM)
E. coli 2806 = assay: Broth microdilution MIC (strain enzymes: SHV-12, TEM-1); settings: Escherichia coli, 2806; alone; read-out: MIC of cefixime (CFM)
E. coli 3174 = assay: Broth microdilution MIC (strain enzymes: TEM-1, CTXM-15); settings: Escherichia coli, 3174; alone; read-out: MIC of cefixime (CFM)
E. coli 3327 = assay: Broth microdilution MIC (strain enzymes: TEM-1, SHV-12); settings: Escherichia coli, 3327; alone; read-out: MIC of cefixime (CFM)
E. coli BAS 1 = assay: Broth microdilution MIC (strain enzymes: none detected); settings: Escherichia coli, BAS1; alone; read-out: MIC of cefixime (CFM)
E. coli ESBL 2 = assay: Broth microdilution MIC (strain enzymes: TEM-1); settings: Escherichia coli, ESBL2; alone; read-out: MIC of cefixime (CFM)
E. coli ESBL 4 = assay: Broth microdilution MIC (strain enzymes: CTX-M15, TEM-1); settings: Escherichia coli, ESBL4; alone; read-out: MIC of cefixime (CFM)
E. coli ESBL 5 = assay: as above; settings: Escherichia coli, ESBL5; alone; read-out: MIC of cefixime (CFM)
E. coli SI-AIRT-4 = assay: Broth microdilution MIC (strain enzymes: TEM-1); settings: Escherichia coli, SIAIRT4; alone; read-out: MIC of cefixime (CFM)
E. coli Si-FDL-GES = assay: microbe, parasite or virus in culture; settings: Escherichia coli, read-out: MIC of cefixime (CFM)
E. coli SI-LP377 = assay: microbe, parasite or virus in culture; settings: Escherichia coli, SILP377, read-out: MIC of cefixime (CFM)
E. coli SI-M004 = assay: Broth microdilution MIC (strain enzymes: SHV-2, GES-12); settings: Escherichia coli, SIM004; alone; read-out: MIC of cefixime (CFM)
E. coli SI-NO36 = assay: Broth microdilution MIC (strain enzymes: SHV-11, TEM-1); settings: Escherichia coli, SINO36; alone; read-out: MIC of cefixime (CFM)
E. coli SI-PBLII = assay: Broth microdilution MIC (strain enzymes: CTX-M2, TEM-1); settings: Escherichia coli; alone; read-out: MIC of cefixime (CFM)
E. coli SI-V502 = assay: Broth microdilution MIC (strain enzymes: TEM-29, CTX-M15); settings: Escherichia coli, SIV502; alone; read-out: MIC of cefixime (CFM)
E. coli 25922 = assay: Broth microdilution MIC (strain enzymes: None detected); settings: Escherichia coli, 25922; alone; read-out: MIC of cefixime (CFM)
K. oxytoca 169219 = assay: Broth microdilution MIC (strain enzymes: TEM-1, CTXM-15); settings: Klebsiella oxytoca, 169219; alone; read-out: MIC of cefixime (CFM)
K. oxytoca 176877 = assay: Broth microdilution MIC (strain enzymes: SHV-105); settings: Klebsiella oxytoca, 176877; alone; read-out: MIC of cefixime (CFM)
K. oxytoca 496 #2 = assay: Broth microdilution MIC (strain enzymes: SHV-105, TEM-1); settings: Klebsiella oxytoca; alone; read-out: MIC of cefixime (CFM)
K. pneumoniae 3151 = assay: Broth microdilution MIC (strain enzymes: SHV-12, TEM-1); settings: Klebsiella pneumoniae, 3151; alone; read-out: MIC of cefixime (CFM)
K. pneumoniae 115468 = assay: Broth microdilution MIC (strain enzymes: TEM-1); settings: Klebsiella pneumoniae, 115468; alone; read-out: MIC of cefixime (CFM)
K. pneumoniae 153239 = assay: Broth microdilution MIC (strain enzymes: SHV-11, TEM-1); settings: Klebsiella pneumoniae, 153239; alone; read-out: MIC of cefixime (CFM)
K. pneumoniae 170375 = assay: Broth microdilution MIC (strain enzymes: SHV-12, CTX-M15 and TEM-1); settings: Klebsiella pneumoniae, 170375; alone; read-out: MIC of cefixime (CFM)
K. pneumoniae 304487 = assay: Broth microdilution MIC (strain enzymes: SHV-12,TEM-1); settings: Klebsiella pneumoniae, 304487; alone; read-out: MIC of cefixime (CFM)
K. pneumoniae 319478 = assay: Broth microdilution MIC (strain enzymes: SHV-12, CTX-M3 and TEM-1); settings: Klebsiella pneumoniae, 319478; alone; read-out: MIC of cefixime (CFM)
K. pneumoniae 329633 = assay: Broth microdilution MIC (strain enzymes: SHV-5, TEM-1); settings: Klebsiella pneumoniae, 329633; alone; read-out: MIC of cefixime (CFM)
K. pneumoniae 11/23 LF#2 = assay: microbe, parasite or virus in culture; settings: Klebsiella pneumoniae, read-out: MIC of cefixime (CFM)
K. pneumoniae ESBL 10 = assay: Broth microdilution MIC (strain enzymes: SHV-12, TEM-1); settings: Klebsiella pneumoniae, ESBL10; alone; read-out: MIC of cefixime (CFM)
K. pneumoniae ESBL 7 #1 = assay: as above; settings: Klebsiella pneumoniae; alone; read-out: MIC of cefixime (CFM)
K. pneumoniae ESBL 8 #1 = assay: Broth microdilution MIC (strain enzymes: TEM-1, SHV-12); settings: Klebsiella pneumoniae; alone; read-out: MIC of cefixime (CFM)
K. pneumoniae ESBL 8 #2 = assay: Broth microdilution MIC (strain enzymes: SHV-12, TEM-1); settings: Klebsiella pneumoniae; alone; read-out: MIC of cefixime (CFM)
K. pneumoniae ESBL 7 #2 = assay: Broth microdilution MIC (strain enzymes: SHV-12, CTX-M15, TEM-1); settings: Klebsiella pneumoniae; alone; read-out: MIC of cefixime (CFM)
K. pneumoniae KI (KCl) = assay: Broth microdilution MIC (strain enzymes: TEM-10); settings: Klebsiella pneumoniae; alone; read-out: MIC of cefixime (CFM)
K. pneumoniae KP 3 = assay: Broth microdilution MIC (strain enzymes: SHV-1, TEM-1); settings: Klebsiella pneumoniae, KP3; alone; read-out: MIC of cefixime (CFM)
K. pneumoniae KP 4 = assay: Broth microdilution MIC (strain enzymes: SHV-2a, SHV-5, TEM-1); settings: Klebsiella pneumoniae, KP4; alone; read-out: MIC of cefixime (CFM)
K. pneumoniae KP 8 = assay: Broth microdilution MIC (strain enzymes: TEM-10, TEM-1, CTX-M15); settings: Klebsiella pneumoniae, KP8; alone; read-out: MIC of cefixime (CFM)
K. pneumoniae KPN 508 = assay: Broth microdilution MIC (strain enzymes: SHV-7, TEM-1); settings: Klebsiella pneumoniae, KPN508; alone; read-out: MIC of cefixime (CFM)
K. pneumoniae SI-KP NO30 = assay: Broth microdilution MIC (strain enzymes: TEM-26b, SHV-60, SHV-26); settings: Klebsiella pneumoniae, SIKPNO30; alone; read-out: MIC of cefixime (CFM)
K. pneumoniae BAA 1705 = assay: Broth microdilution MIC (strain KPC-producing); settings: Klebsiella pneumoniae, BAA1705; alone; read-out: MIC of cefixime (CFM)
[1] = test system: panel of ESBL-producing Enterobacteriaceae (40 strains); assay: Broth microdilution MIC50/MIC90 summary over the panel

**Q.** Which results are given for `C=CC1=C(C(=O)O)N2C(=O)[C@@H](NC(=O)/C(=N\OCC(=O)O)c3csc(N)n3)[C@H]2SC1` [Cefixime, cefixime, reference compound]?
**A.** MIC (E. coli 1924): 2 µg/mL; MIC (E. coli 2150): > 32 µg/mL; MIC (E. coli 2806): 32 µg/mL; MIC (E. coli 3174): 0.5 µg/mL; MIC (E. coli 3327): > 32 µg/mL; MIC (E. coli BAS 1): > 32 µg/mL; MIC (E. coli ESBL 2): > 32 µg/mL; MIC (E. coli ESBL 4): > 32 µg/mL; MIC (E. coli ESBL 5): > 32 µg/mL; MIC (E. coli SI-AIRT-4): 0.5 µg/mL; MIC (E. coli Si-FDL-GES): 2 µg/mL; MIC (E. coli SI-LP377): > 32 µg/mL; MIC (E. coli SI-M004): > 32 µg/mL; MIC (E. coli SI-NO36): 1 µg/mL; MIC (E. coli SI-PBLII): 1 µg/mL; MIC (E. coli SI-V502): 2 µg/mL; MIC (E. coli 25922): 1 µg/mL; MIC (K. oxytoca 169219): > 32 µg/mL; MIC (K. oxytoca 176877): > 32 µg/mL; MIC (K. oxytoca 496 #2): 32 µg/mL; MIC (K. pneumoniae 3151): > 32 µg/mL; MIC (K. pneumoniae 115468): > 32 µg/mL; MIC (K. pneumoniae 153239): 0.5 µg/mL; MIC (K. pneumoniae 170375): > 32 µg/mL; MIC (K. pneumoniae 304487): > 32 µg/mL; MIC (K. pneumoniae 319478): > 32 µg/mL; MIC (K. pneumoniae 329633): > 32 µg/mL; MIC (K. pneumoniae 11/23 LF#2): > 32 µg/mL; MIC (K. pneumoniae ESBL 10): > 32 µg/mL; MIC (K. pneumoniae ESBL 7 #1): > 32 µg/mL; MIC (K. pneumoniae ESBL 8 #1): > 32 µg/mL; MIC (K. pneumoniae ESBL 8 #2): > 32 µg/mL; MIC (K. pneumoniae ESBL 7 #2): > 32 µg/mL; MIC (K. pneumoniae KI (KCl)): 32 µg/mL; MIC (K. pneumoniae KP 3): > 32 µg/mL; MIC (K. pneumoniae KP 4): > 32 µg/mL; MIC (K. pneumoniae KP 8): > 32 µg/mL; MIC (K. pneumoniae KPN 508): > 32 µg/mL; MIC (K. pneumoniae SI-KP NO30): > 32 µg/mL; MIC (K. pneumoniae BAA 1705): > 32 µg/mL; MIC50 ([1]; read-out: Cefixime MIC50): > 32 µg/mL; MIC90 ([1]; read-out: Cefixime MIC90): > 32 µg/mL
